# Results published in patent US20260325533A1, “CDK INHIBITOR COMPOUNDS” (ALEKSIA THERAPEUTICS, INC., priority 2023, published 2026).
# Where two headings read alike, the source gives them in different places.
# How the values were obtained:
# Type in all cases: biochemical
# CDK2/CCNE1 = CDK2/CCNE1 (Homo sapiens, UniProt P24941); experiment: CDK2 homogeneous time-resolved fluorescence (HTRF) kinase assay; conditions: CDK2/CCNE
# Method in brief: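 CDK2/CCNE1 (3 nM) preincubated 20 min at 23 °C with compound, then reacted 60 min at 23 °C with 1 mM ATP and 50 nM ULight-4E-BP1 (Thr37/46) peptide. Stopped with EDTA, phospho-peptide detected by Eu-anti-phospho antibody (665 nm or 665/615 ratio). IC50 from 11-point half-log titrations typically starting at 10 μM.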
# CDK1/CCNB1 = CDK1/CCNB1 (Homo sapiens, UniProt P06493); experiment: CDK1 homogeneous time-resolved fluorescence (HTRF) kinase assay; conditions: CDK1/CCNB
# CDK1/CCNB1, sequence (P06493 whole entry): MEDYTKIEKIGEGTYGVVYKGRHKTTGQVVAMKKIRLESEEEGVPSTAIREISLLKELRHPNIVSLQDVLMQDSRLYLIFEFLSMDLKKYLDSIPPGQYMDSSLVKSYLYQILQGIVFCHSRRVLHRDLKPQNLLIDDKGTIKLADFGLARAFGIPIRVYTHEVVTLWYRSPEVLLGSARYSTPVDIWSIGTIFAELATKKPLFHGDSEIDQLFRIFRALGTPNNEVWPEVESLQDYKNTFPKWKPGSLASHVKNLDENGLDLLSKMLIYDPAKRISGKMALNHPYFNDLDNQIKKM
# CDK1/CCNB1, sequence (P14635 whole entry partner): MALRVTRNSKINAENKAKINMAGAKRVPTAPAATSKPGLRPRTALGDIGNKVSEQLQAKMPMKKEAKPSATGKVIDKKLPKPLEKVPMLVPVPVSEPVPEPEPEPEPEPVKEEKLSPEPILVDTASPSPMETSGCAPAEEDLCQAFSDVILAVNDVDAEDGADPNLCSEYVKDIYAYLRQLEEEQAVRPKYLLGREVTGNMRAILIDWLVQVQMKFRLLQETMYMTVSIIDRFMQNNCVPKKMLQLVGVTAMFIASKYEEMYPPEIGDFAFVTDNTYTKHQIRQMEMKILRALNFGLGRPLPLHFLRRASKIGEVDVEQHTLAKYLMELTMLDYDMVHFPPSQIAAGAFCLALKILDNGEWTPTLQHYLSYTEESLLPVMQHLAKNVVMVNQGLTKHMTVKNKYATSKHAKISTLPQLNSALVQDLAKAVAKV
# Method in brief: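 Read-out: TR-FRET (Eu anti-phospho-4E-BP1 Thr37/46 antibody, 2 nM; 665 nm or 665/615 ratio) after 60 min phosphorylation of 50 nM ULight-peptide by 0.5 nM CDK1/CCNB1 at 1 mM ATP, 23 °C. Compound preincubated 20 min with enzyme; 1% DMSO.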
# CDK4/CCND3 = CDK4/CCND3 (Homo sapiens, UniProt P11802); experiment: CDK4 homogeneous time-resolved fluorescence (HTRF) kinase assay; conditions: CDK4/CCND
# CDK4/CCND3, sequence (P11802 whole entry): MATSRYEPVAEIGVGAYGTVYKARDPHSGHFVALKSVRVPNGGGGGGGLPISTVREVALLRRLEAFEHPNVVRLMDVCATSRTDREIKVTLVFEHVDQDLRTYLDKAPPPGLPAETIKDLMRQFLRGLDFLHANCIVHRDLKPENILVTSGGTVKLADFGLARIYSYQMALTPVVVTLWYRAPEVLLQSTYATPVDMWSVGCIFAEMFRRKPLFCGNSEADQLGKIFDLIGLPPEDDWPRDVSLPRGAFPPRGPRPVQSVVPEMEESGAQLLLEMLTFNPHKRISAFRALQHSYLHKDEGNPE
# CDK4/CCND3, sequence (P30281 whole entry partner): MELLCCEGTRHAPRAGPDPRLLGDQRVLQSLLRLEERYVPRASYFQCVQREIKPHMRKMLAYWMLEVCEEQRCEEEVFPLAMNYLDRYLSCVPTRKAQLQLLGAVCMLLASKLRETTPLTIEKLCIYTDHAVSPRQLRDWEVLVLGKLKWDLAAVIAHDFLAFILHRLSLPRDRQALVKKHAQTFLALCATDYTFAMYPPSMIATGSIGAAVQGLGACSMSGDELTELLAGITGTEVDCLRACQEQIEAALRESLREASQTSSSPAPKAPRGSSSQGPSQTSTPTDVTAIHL
# Method in brief: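 Inhibition of CDK4/CCND3 (1.5 nM) was measured at high ATP (1 mM) using 50 nM ULight-labelled 4E-BP1 Thr37/46 peptide; detection used 2 nM europium anti-phospho antibody after EDTA quench. IC50 values came from 11-point half-log titrations typically starting at 10 μM.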
# CDK6/CCND1 = CDK6/CCND1 (Homo sapiens, UniProt Q00534); experiment: CDK6 homogeneous time-resolved fluorescence (HTRF) kinase assay; conditions: CDK6/CCND
# CDK6/CCND1, sequence (Q00534 whole entry): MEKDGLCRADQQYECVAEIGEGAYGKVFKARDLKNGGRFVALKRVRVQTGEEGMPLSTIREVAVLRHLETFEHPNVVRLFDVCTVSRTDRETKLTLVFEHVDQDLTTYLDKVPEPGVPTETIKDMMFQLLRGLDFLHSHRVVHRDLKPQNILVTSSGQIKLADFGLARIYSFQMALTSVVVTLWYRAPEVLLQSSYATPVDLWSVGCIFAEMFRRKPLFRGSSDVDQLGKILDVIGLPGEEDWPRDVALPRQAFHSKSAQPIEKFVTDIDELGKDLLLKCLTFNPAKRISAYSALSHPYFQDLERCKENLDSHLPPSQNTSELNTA
# CDK6/CCND1, sequence (P24385 whole entry partner): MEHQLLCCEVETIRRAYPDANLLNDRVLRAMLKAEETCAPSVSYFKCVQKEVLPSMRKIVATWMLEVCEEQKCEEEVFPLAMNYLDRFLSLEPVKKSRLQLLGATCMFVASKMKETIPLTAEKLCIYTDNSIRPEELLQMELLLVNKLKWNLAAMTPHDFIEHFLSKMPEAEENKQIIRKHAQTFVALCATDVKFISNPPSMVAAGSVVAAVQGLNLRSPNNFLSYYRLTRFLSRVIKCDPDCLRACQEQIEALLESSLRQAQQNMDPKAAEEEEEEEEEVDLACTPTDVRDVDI
# Method in brief: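 1 nM enzyme, 1 mM ATP, 50 nM ULight-4E-BP1 (Thr37/46) peptide, 1% DMSO; 20 min compound preincubation, 60 min reaction, 23 °C. EDTA stop, 2 nM Eu-anti-phospho-4E-BP1 antibody 60 min. TR-FRET 665 nm (or 665/615 ratio); IC50 from 11-point half-log titration, top 10 μM.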
# [1] = 25-250 nM, read-out: CDK2/CCNE IC50, 25-250 nM
# [2] = >250 nM, read-out: CDK1/CCNB IC50 >250 nM
# [3] = >250 nM, read-out: CDK4/CCND IC50, >250 nM
# [4] = >250 nM, 1 mM ATP, read-out: CDK6/CCND IC50, >250 nM
# [5] = 25-250 nM marked x, read-out: CDK2/CCNE IC50 25-250 nM
# [6] = >250 nM marked x, read-out: CDK1/CCNB IC50 >250 nM
# [7] = 25-250 nM marked x, read-out: CDK4/CCND IC50 25-250 nM
# [8] = 25-250 nM marked x, read-out: CDK6/CCND IC50 25-250 nM
# [9] = <25 nM, read-out: CDK6/CCND IC50 <25 nM
# [10] = <25 nM, read-out: CDK2/CCNE IC50 <25 nM
# [11] = 25-250 nM marked x, read-out: CDK1/CCNB IC50 25-250 nM
# [12] = <25 nM, read-out: CDK4/CCND IC50 <25 nM
# [13] = >250 nM marked x, read-out: CDK4/CCND IC50 >250 nM
# [14] = >250 nM marked x, read-out: CDK6/CCND IC50 >250 nM
compound,measurement,setting,value
"COc1ccc(C#Cc2nccc3cnc(Nc4ccc(S(C)(=O)=O)cc4)cc23)cc1 [Ex 941, 5-((4-methoxyphenyl)ethynyl)-N-(4-(methylsulfonyl)phenyl)-2,6-naphthyridin-3-amine]",IC50,CDK2/CCNE1; [1],25 to 250 nM
same,IC50,CDK1/CCNB1; [2],> 250 nM
same,IC50,CDK4/CCND3; [3],> 250 nM
same,IC50,CDK6/CCND1; [4],> 250 nM
"CS(=O)(=O)c1cccc(Nc2cc3c(C#Cc4ccc(C#N)cc4)nccc3cn2)c1 [Ex 942, 4-((7-((3-(methylsulfonyl)phenyl)amino)-2,6-naphthyridin-1-yl)ethynyl)benzonitrile]",IC50,CDK2/CCNE1; [1],25 to 250 nM
same,IC50,CDK1/CCNB1; [2],> 250 nM
same,IC50,CDK4/CCND3; [3],> 250 nM
same,IC50,CDK6/CCND1; [4],> 250 nM
"Cn1cc(Nc2cc3c(C#Cc4ccc(C#N)cc4)nccc3cn2)cn1 [Ex 943, 4-((7-((1-methyl-1H-pyrazol-4-yl)amino)-2,6-naphthyridin-1-yl)ethynyl)benzonitrile]",IC50,CDK2/CCNE1; [1],25 to 250 nM
same,IC50,CDK1/CCNB1; [2],> 250 nM
same,IC50,CDK4/CCND3; [3],> 250 nM
same,IC50,CDK6/CCND1; [4],> 250 nM
"CS(=O)(=O)N1CCC(Nc2cc3c(N4CCC(O)CC4)nccc3cn2)CC1 [Example 1, 1-(7-((1-(methylsulfonyl)piperidin-4-yl)amino)-2,6-naphthyridin-1-yl)piperidin-4-ol]",IC50,CDK2/CCNE1; [5],25 to 250 nM
same,IC50,CDK1/CCNB1; [6],> 250 nM
same,IC50,CDK4/CCND3; [7],25 to 250 nM
same,IC50,CDK6/CCND1; [8],25 to 250 nM
"CS(=O)(=O)N1CCC(Nc2cc3c(N4CCCC4)nccc3cn2)CC1 [Example 2, N-(1-(methylsulfonyl)piperidin-4-yl)-5-(pyrrolidin-1-yl)-2,6-naphthyridin-3-amine]",IC50,CDK2/CCNE1; [5],25 to 250 nM
same,IC50,CDK1/CCNB1; [6],> 250 nM
same,IC50,CDK4/CCND3; [7],25 to 250 nM
same,IC50,CDK6/CCND1; [9],< 25 nM
"C=CS(=O)(=O)N1CCC(Nc2cc3c(N4CCCCC4)nccc3cn2)CC1 [Example 3, 5-(piperidin-1-yl)-N-(1-(vinylsulfonyl)piperidin-4-yl)-2,6-naphthyridin-3-amine]",IC50,CDK2/CCNE1; [10],< 25 nM
same,IC50,CDK1/CCNB1; [11],25 to 250 nM
same,IC50,CDK4/CCND3; [7],25 to 250 nM
same,IC50,CDK6/CCND1; [8],25 to 250 nM
"CC(C)c1nccc2cnc(NC3CCN(S(C)(=O)=O)CC3)cc12 [Example 6, 5-isopropyl-N-(1-(methylsulfonyl)piperidin-4-yl)-2,6-naphthyridin-3-amine]",IC50,CDK2/CCNE1; [10],< 25 nM
same,IC50,CDK1/CCNB1; [11],25 to 250 nM
same,IC50,CDK4/CCND3; [12],< 25 nM
same,IC50,CDK6/CCND1; [8],25 to 250 nM
"CC#Cc1nccc2cnc(Nc3ccc(S(C)(=O)=O)cc3)cc12 [Example 7, N-(4-(methylsulfonyl)phenyl)-5-(prop-1-yn-1-yl)-2,6-naphthyridin-3-amine]",IC50,CDK2/CCNE1; [10],< 25 nM
same,IC50,CDK1/CCNB1; [6],> 250 nM
same,IC50,CDK4/CCND3; [13],> 250 nM
same,IC50,CDK6/CCND1; [14],> 250 nM
"CS(=O)(=O)N1CCC(Nc2cc3c(OCc4ccccc4)nccc3cn2)CC1 [Example 11, 5-(benzyloxy)-N-(1-(methylsulfonyl)piperidin-4-yl)-2,6-naphthyridin-3-amine]",IC50,CDK2/CCNE1; [5],25 to 250 nM
same,IC50,CDK1/CCNB1; [11],25 to 250 nM
same,IC50,CDK4/CCND3; [12],< 25 nM
same,IC50,CDK6/CCND1; [9],< 25 nM
"C=CS(=O)(=O)c1ccc(Nc2cc3c(N4CCC(C#N)CC4)nccc3cn2)cc1 [Example 15, 1-(7-((4-(vinylsulfonyl)phenyl)amino)-2,6-naphthyridin-1-yl)piperidine-4-carbonitrile]",IC50,CDK2/CCNE1; [5],25 to 250 nM
same,IC50,CDK1/CCNB1; [6],> 250 nM
same,IC50,CDK4/CCND3; [13],> 250 nM
same,IC50,CDK6/CCND1; [14],> 250 nM
"CS(=O)(=O)N1CCC(Nc2cc3c(N4CCCCC4)nc(C=O)cc3cn2)CC1 [Example 18, 7-((1-(methylsulfonyl)piperidin-4-yl)amino)-1-(piperidin-1-yl)-2,6-naphthyridine-3-carbaldehyde]",IC50,CDK2/CCNE1; [10],< 25 nM
same,IC50,CDK1/CCNB1; [11],25 to 250 nM
same,IC50,CDK4/CCND3; [12],< 25 nM
same,IC50,CDK6/CCND1; [9],< 25 nM
